According to US11779567B2, “Method for optimizing 5-hydroxytryptamine function in the brain for therapeutic purposes” (Evecxia Therapeutics, Inc., priority 2021, dated 2023):
Values joined by “and” are separate entries in the source; they are usually repeats but may differ in a detail not shown here. Identical values can stand only once.

Assays:
Format in all cases: in vivo, human
[1] = Dose-proportionality assessment (power model) of IV 5-HTP continuous infusion; settings: doses up to 3 mg/kg/24 hr
Excerpt: Background: The term dose proportionality denotes a proportional and linear relationship between dose and a pharmacokinetic measure, for the specific (i) dose-range, (i) dosing route, and (iii) dosing regimen investigated. More particularly, if doubling the dose doubles the pharmacokinetic measure of maximal (CMax) or total (AUC) systemic exposure to the compound administered, then dose proportionality is present, at least within the dose ranges examined. […] The relationship between dose and plasma compound concentration (C (e.g., CMax or AUC)) can be described via the following equation: C=α dose^β When β=1, dose proportionality is present. If so, C=α dose. α is a constant relating dose to C, for a given range of C and given dose units, and is identical to the slope of the regression line. In the power model (Smith et al, 2000), dose proportionality is assessed via the following linear equation: log(C)=log(α)+β×log(dose)+error Based on standard statistical methods for linear models, estimates for β together with confidence limits can be derived. […]
Methods: Applying the approach by Smith (Smith et al, 2000), using a general linear model and SAS software Version 9.4, dose proportionality of continuously administered IV 5-HTP was assessed using the data in Table 9, below. […]

[2] = Safety and tolerability of IV 5-HTP continuous infusion
Method: Methods: Safety and tolerability of the IV 5-HTP continuous infusion were assessed during the 24 hr administration of IV 5-HTP infusion (see Example 5) or placebo and approximately 24 hr after end of the infusion. Safety and tolerability of the IV 5-HTP infusion were assessed by monitoring of adverse events (AEs), standard clinical safety laboratory tests, electrocardiograms (ECG), vital signs, and clinical scales of suicidality. The safety population included all subjects. Vital sign measurements included systolic blood pressure (mmHg), diastolic blood pressure (mmHg), heart rate (beats/min), respiratory rate (breaths/min), and oral temperature. Twelve-lead electrocardiogram measurements were performed in triplicate. The recorded parameters included heart rate (beats/min), PR (msec), QRS (msec), and QTcF (msec). Assessments were rated as normal, not clinically significant, or clinically significant. Clinical laboratory tests included a complete blood count, chemistry panel, coagulation panel, and thyroid stimulating hormone.
Statistics: Descriptive statistics (n, mean, SD, minimum, and maximum) for absolute values and changes from baseline were calculated.

plasma cortisol = assay: Pharmacodynamics: acute increase in plasma cortisol
Excerpt: Background: Compounds that acutely elevate brain 5-HTExt can activate the hypothalamic pituitary adrenal axis and induce the release of cortisol from the adrenals into the plasma (Attenburrow et al, 2001; Demisch et al, 1986; Guan et al, 2020; Kapitany et al, 1999; Lowe et al, 2006; Meltzer et al, 1983; Sargent et al, 1998). Generally large, acute increases in brain 5-HTExt are required to increase cortisol and the effect desensitizes rapidly with prolonged serotonin elevation (Mashchak et al, 1983).
Method: Total plasma cortisol levels (expressed in μg/dL) were quantified using standard immunoassay methodology. Total plasma cortisol levels were measured at multiple time points during the 24 hr infusion period of 5-HTP solution for IV infusion or placebo. Total plasma cortisol levels were measured at baseline (T=0) before the start of infusion. Blood samples were collected at T=0, and at pre-specified timepoints following initiation of infusion (2, 4, 6, 8, 10, 12, 14, 22, 24 hr). The pharmacodynamic population included subjects who received IV 5-HTP and completed the 24 h infusion or placebo and who had escitalopram levels above the lower limit of quantitation.
Statistics: Changes from baseline value were calculated for each time point using descriptive statistics (n, arithmetic mean, SD, CV). A comparison between active treatment and placebo was made for each time point and cohort using ANOVA with Dunnett's post-hoc correction of the p-value to account for multiple testing. Significance was set at p<0.05. Statistical analysis was executed using SAS software Version 9.4,

[3] = 2 mg/kg/24 hr ramp rate infusion
[4] = ramp flow rate, 1 mg/kg/24 hr, subjects with event/subjects

N[C@@H](Cc1c[nH]c2ccc(O)cc12)C(=O)O [5-HTP, 5-hydroxytryptophan]
dose proportionality [1]: dose proportionality for doses up to 3 mg/kg/24 hr was accepted
subjects in whom AEs occurred ([2]; 1 mg/kg/24 hr, ramp flow rate infusion): 2 subjects
mild AEs: chills, subjects with event [2, 3]: 1 and 1/6
mild AEs: dizziness, subjects with event [2, 3]: 1 and 1/6
5-HTP plasma exposure with which incidence of AEs was more commonly associated ([2]; all cohorts): > 100 ng/mL
severity of all AEs ([2]; all cohorts): mild-to-moderate
safety findings in clinical safety laboratory tests, vital signs, 12-lead electrocardiograms ([2]; all cohorts, 24 hr IV 5-HTP infusion): no safety findings
serious or severe AEs related to the IV 5-HTP infusion ([2]; any subjects, all cohorts): No serious or severe AEs
AEs ([2]; constant flow rate, 1 mg/kg/24 hr group): no AEs
concentration at 1 h ([2]; human, plasma, intravenous, constant rate 3 mg/kg/24 hr, read-out: plasma 5-HTP levels within 1 h in the subjects who discontinued): 0.25 to 0.3 µg/mL
5-HTP plasma levels associated with manifestation of AEs ([2]; ramp flow rate 1 mg/kg/24 hr, at highest flow rate 55.55 ml/h): 112 to 266 ng/mL
mild AEs: nausea [2, 4]: 1/5
mild AEs: vomiting [2, 4]: 1/5
moderate AEs: nausea [2, 4]: 1/5
moderate AEs: vomiting [2, 4]: 1/5
plasma cortisol levels relative to placebo (plasma cortisol; constant flow rate 1 mg/kg/24 hr, 2 hr after start of infusion, p<0.01): significantly higher
plasma cortisol levels relative to placebo (plasma cortisol; constant flow rate 3 mg/kg/24 hr, 2 hr after start of infusion, p<0.005): significantly higher
plasma cortisol levels relative to placebo (plasma cortisol; constant flow rate 3 mg/kg/24 hr, throughout the 24 hr infusion, except at the 24 hr time point): remained significantly higher
increase of plasma cortisol levels relative to placebo (plasma cortisol; ramp flow rate 1 mg/kg/24 hr, 14 hr, trend, p=0.0751): not statistically significant
plasma cortisol levels relative to placebo (plasma cortisol; ramp flow rate 2 mg/kg/24 hr, 14 hr after start of infusion, p<0.05): significantly higher
plasma cortisol levels relative to placebo (plasma cortisol; ramp flow rate 3 mg/kg/24 hr, 14 hr after start of infusion, p<0.0001): significantly higher
